Read-outs that look alike come from different tables or passages of the source.
Columns and labels:
[1] = system: Key Grass and Sedge Weeds as well as Grass Crops; assay: Post-emergent Test II herbicidal activity (Table 6); type: in vivo; settings: post-emergence, 336 h; for pest or weed control at 70 g/ha: application rate 70 g ai/ha; for pest or weed control at 140 g/ha: application rate 140 g ai/ha
Outline: (§1)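 Greenhouse-grown plants at first or second true leaf stage were sprayed post-emergence with compound in acetone/DMSO-based aqueous spray containing crop oil concentrate and surfactant, at 187 L/ha, highest rate plus ½× to 1/16× dilutions. After 14 d, injury was scored visually versus untreated plants, 0 (none) to 100% (complete kill).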

[2] = system: Key Broadleaf Weed and Crop Species; assay: Post-emergent Test II herbicidal activity (Table 5); type: in vivo; settings: post-emergence, 336 h, post-emergent, 14 days after application; for pest or weed control at 70 g/ha: application rate 70 g ai/ha; for pest or weed control at 140 g/ha: application rate 140 g ai/ha
Outline: as §1

[3] = CYPES: yellow nutsedge (Cyperus esculentus), read-out: Visual Growth Reduction (%) 14 Days After Application, CYPES
[4] = DIGSA: crabgrass (Digitaria sanguinalis), read-out: Visual Growth Reduction (%) 14 Days After Application, DIGSA
[5] = ECHCG: barnyardgrass (Echinochloa crus-galli), read-out: Visual Growth Reduction (%) 14 Days After Application, ECHCG
[6] = ORYSA: rice (Oryza sativa), read-out: Visual Growth Reduction (%) 14 Days After Application, ORYSA
[7] = SETFA: giant foxtail (Setaria faberi), read-out: Visual Growth Reduction (%) 14 Days After Application, SETFA
[8] = SORVU: grain sorghum (Sorghum vulgare), read-out: Visual Growth Reduction (%) 14 Days After Application, SORVU
[9] = TRZSS (wheat, Triticum aestivum), read-out: Visual Growth Reduction (%) 14 Days After Application, TRZSS
[10] = ZEAMX: maize, corn (Zea mays), read-out: Visual Growth Reduction (%) 14 Days After Application, ZEAMX
[11] = ABUTH: velvetleaf (Abutilon theophrasti), read-out: Visual Growth Reduction (%) 14 Days After Application, ABUTH
[12] = AMARE: redroot pigweed (Amaranthus retroflexus), read-out: Visual Growth Reduction (%) 14 Days After Application, AMARE
[13] = BRSNN: oilseed-rape, canola (Brassica napus), read-out: Visual Growth Reduction (%) 14 Days After Application, BRSNN
[14] = CHEAL: lambsquarters (Chenopodium album), read-out: Visual Growth Reduction (%) 14 Days After Application, CHEAL
[15] = EPHHL: wild poinsettia (Euphorbia heterophylla), read-out: Visual Growth Reduction (%) 14 Days After Application, EPHHL
[16] = HELAN: sunflower (Helianthus annuus), read-out: Visual Growth Reduction (%) 14 Days After Application, HELAN
[17] = VIOTR: wild pansy (Viola tricolor), read-out: Visual Growth Reduction (%) 14 Days After Application, VIOTR

Cc1cc(F)c(-c2cc(N)c(Cl)c(C(=O)O)n2)cc1F [Compound 188]
0 to 29%: pest or weed control at 70 g/ha [1, 3] | pest or weed control at 140 g/ha [1, 3] | pest or weed control at 70 g/ha [1, 4] | pest or weed control at 140 g/ha [1, 4] | pest or weed control at 70 g/ha [1, 6] | pest or weed control at 140 g/ha [1, 6] | pest or weed control at 70 g/ha [1, 7] | pest or weed control at 140 g/ha [1, 8] | pest or weed control at 70 g/ha [1, 9] | pest or weed control at 140 g/ha [1, 9] | pest or weed control at 70 g/ha [1, 10] | pest or weed control at 140 g/ha [1, 10] | pest or weed control at 70 g/ha [2, 17] | pest or weed control at 140 g/ha [2, 17]
95 to 100%: pest or weed control at 140 g/ha [2, 11] | pest or weed control at 70 g/ha [2, 12] | pest or weed control at 140 g/ha [2, 12] | pest or weed control at 70 g/ha [2, 14] | pest or weed control at 70 g/ha [2, 15] | pest or weed control at 140 g/ha [2, 15]
85 to 94%: pest or weed control at 140 g/ha [2, 14]
30 to 44%: pest or weed control at 140 g/ha [1, 7]
45 to 59%: pest or weed control at 70 g/ha [1, 8]
60 to 74%: pest or weed control at 140 g/ha [1, 5] | pest or weed control at 70 g/ha [2, 13] | pest or weed control at 140 g/ha [2, 13]
75 to 84%: pest or weed control at 70 g/ha [1, 5] | pest or weed control at 70 g/ha [2, 11] | pest or weed control at 70 g/ha [2, 16] | pest or weed control at 140 g/ha [2, 16]
172.9 to 175 °C: melting point

Cc1cc(F)c(-c2nc(C(=O)O)c(Cl)c(N)c2F)cc1F [Compound 194]
45 to 59%: pest or weed control at 70 g/ha [1, 7]
95 to 100%: pest or weed control at 70 g/ha [2, 12] | pest or weed control at 140 g/ha [2, 12] | pest or weed control at 140 g/ha [2, 16]
167.4 to 170.2 °C: melting point
0 to 29%: pest or weed control at 70 g/ha [1, 3] | pest or weed control at 140 g/ha [1, 3] | pest or weed control at 70 g/ha [1, 4] | pest or weed control at 140 g/ha [1, 4] | pest or weed control at 70 g/ha [1, 5] | pest or weed control at 140 g/ha [1, 5] | pest or weed control at 70 g/ha [1, 6] | pest or weed control at 140 g/ha [1, 6] | pest or weed control at 70 g/ha [1, 8] | pest or weed control at 140 g/ha [1, 8] | pest or weed control at 70 g/ha [1, 9] | pest or weed control at 140 g/ha [1, 9] | pest or weed control at 70 g/ha [1, 10] | pest or weed control at 140 g/ha [1, 10] | pest or weed control at 70 g/ha [2, 17] | pest or weed control at 140 g/ha [2, 17]
75 to 84%: pest or weed control at 140 g/ha [2, 11] | pest or weed control at 140 g/ha [2, 13] | pest or weed control at 70 g/ha [2, 14]
85 to 94%: pest or weed control at 140 g/ha [2, 14] | pest or weed control at 70 g/ha [2, 15] | pest or weed control at 140 g/ha [2, 15] | pest or weed control at 70 g/ha [2, 16]
60 to 74%: pest or weed control at 140 g/ha [1, 7] | pest or weed control at 70 g/ha [2, 11] | pest or weed control at 70 g/ha [2, 13]

Nc1c(F)c(-c2cc(F)c(OC(F)F)cc2F)nc(C(=O)O)c1Cl [Compound 195]
30 to 44%: pest or weed control at 70 g/ha [2, 15] | pest or weed control at 140 g/ha [2, 15]
0 to 29%: pest or weed control at 70 g/ha [1, 3] | pest or weed control at 140 g/ha [1, 3] | pest or weed control at 70 g/ha [1, 4] | pest or weed control at 140 g/ha [1, 4] | pest or weed control at 70 g/ha [1, 5] | pest or weed control at 140 g/ha [1, 5] | pest or weed control at 70 g/ha [1, 6] | pest or weed control at 140 g/ha [1, 6] | pest or weed control at 70 g/ha [1, 7] | pest or weed control at 140 g/ha [1, 7] | pest or weed control at 70 g/ha [1, 8] | pest or weed control at 140 g/ha [1, 8] | pest or weed control at 70 g/ha [1, 9] | pest or weed control at 140 g/ha [1, 9] | pest or weed control at 70 g/ha [1, 10] | pest or weed control at 140 g/ha [1, 10] | pest or weed control at 70 g/ha [2, 11] | pest or weed control at 140 g/ha [2, 11] | pest or weed control at 70 g/ha [2, 12] | pest or weed control at 70 g/ha [2, 17] | pest or weed control at 140 g/ha [2, 17]
60 to 74%: pest or weed control at 140 g/ha [2, 13] | pest or weed control at 70 g/ha [2, 16]
45 to 59%: pest or weed control at 140 g/ha [2, 12] | pest or weed control at 70 g/ha [2, 13] | pest or weed control at 70 g/ha [2, 14]
75 to 84%: pest or weed control at 140 g/ha [2, 14]
85 to 94%: pest or weed control at 140 g/ha [2, 16]
162 to 165 °C: melting point

COc1c(N)nc(-c2cc(F)c(C)cc2F)nc1C(=O)O [Compound 201]
85 to 94%: pest or weed control at 70 g/ha [2, 14] | pest or weed control at 140 g/ha [2, 15]
75 to 84%: pest or weed control at 140 g/ha [2, 14] | pest or weed control at 140 g/ha [2, 16]
95 to 100%: pest or weed control at 70 g/ha [2, 13] | pest or weed control at 140 g/ha [2, 13]
135.9 to 137.7 °C: melting point
45 to 59%: pest or weed control at 140 g/ha [1, 5] | pest or weed control at 140 g/ha [1, 8] | pest or weed control at 70 g/ha [2, 15]
30 to 44%: pest or weed control at 140 g/ha [1, 7] | pest or weed control at 70 g/ha [2, 11] | pest or weed control at 70 g/ha [2, 12]
60 to 74%: pest or weed control at 70 g/ha [1, 5] | pest or weed control at 140 g/ha [2, 11] | pest or weed control at 140 g/ha [2, 12] | pest or weed control at 70 g/ha [2, 16]
0 to 29%: pest or weed control at 70 g/ha [1, 3] | pest or weed control at 140 g/ha [1, 3] | pest or weed control at 70 g/ha [1, 4] | pest or weed control at 140 g/ha [1, 4] | pest or weed control at 70 g/ha [1, 6] | pest or weed control at 140 g/ha [1, 6] | pest or weed control at 70 g/ha [1, 7] | pest or weed control at 70 g/ha [1, 8] | pest or weed control at 70 g/ha [1, 9] | pest or weed control at 140 g/ha [1, 9] | pest or weed control at 70 g/ha [1, 10] | pest or weed control at 140 g/ha [1, 10] | pest or weed control at 70 g/ha [2, 17] | pest or weed control at 140 g/ha [2, 17]

Source: patent US9113629B2, “4-amino-6-(4-substituted-phenyl)-picolinates and 6-amino-2-(4-substituted-phenyl)-pyrimidine-4-carboxylates and their use as herbicides” (DOW AGROSCIENCES LLC, priority 2013, dated 2015)
